Experimental data taken from patent US20090170899A1, “Stimulators of 5-HT4 receptors and uses thereof” (priority 2004, published 2009).

Tested on: BrdU-positive cells in the sub-granular zone (SGZ) of the hippocampus
Experiment: Hippocampal neurogenesis (BrdU-positive cells) after 3-day treatment
Type: in vivo, rat
Conditions: RS 67333 1.5 mg/kg/day, 3 days
Method: A and B: Photomicrographs (magnification: 10× and 100× for the small rectangles) representative of the control and RS 67333 group, respectively. Clusters of positive cells were found in the presence of RS 67333 (small rectangles). RS 67333 was administered through the use of osmotic minipumps, inserted subcutaneously in the region of the back. Rats received intraperitoneal injections of BrdU at the dose of 50 mg/kg twice daily (8 h interval), starting from the day of minipump insertion until day 2 post-surgery.
Drugs and Chemicals. The following compounds were used: GR 125487 sulphamate, prucalopride monohydrochloride, citalopram hydrobromide (gifts from Glaxo, Janssen and Lundbeck laboratories, respectively), RS 67333 hydrochloride (Tocris Cookson Inc., Ellisville, Mo., USA), WAY 100635 hydrochloride (Research Biochemicals, Natick, Mass., USA), pCPA methyl ester hydrochloride, BrdU (Sigma-Aldrich Canada, Oakville, Ontario, Canada). All compounds were diluted in distilled water. All drug dosages refer to the free base. For chronic treatments, prucalopride (2.5 mg/kg/day), RS 67333 (1.5 mg/kg/day) or the vehicle were delivered through osmotic minipumps (Alza, Palo Alto, Calif., USA), inserted subcutaneously in the region of the back under short-duration (≦5 min) halothane anesthesia. […]

Structure (SMILES): CCCCN1CCC(CCC(=O)c2cc(Cl)c(N)cc2OC)CC1 [RS 67333, 1-(4-amino-5-chloro-2-methoxyphenyl)-3-(1-n-burtl-4-piperidinyl)-1-propanone]
- size of clusters of BrdU-positive cells: 6 to 10 clones
- density of BrdU-positive cells in the SGZ (control 44.9±17.2): 200.2±44.9 per mm^2
